Measurements published in US10849881B2, “Octahydro-cyclobuta[1,2-c;3,4-c′]dipyrrol-2-yl” (Hoffmann-La Roche Inc., priority 2013, dated 2020).

biological target: ATX (human His-tagged) (Homo sapiens (Human), UniProt Q13822); assay: Human ATX enzyme inhibition assay (fluorescence quenching, MR121 substrate); assay type: biochemical; conditions: 30 nM ATX, 1 μM MR121 substrate, 30° C., pH 8.0
Procedure: Human ATX Enzyme Inhibition Assay
ATX inhibition was measured by a fluorescence quenching assay using a specifically labeled substrate analogue (MR121 substrate). To obtain this MR121 substrate, BOC and TBS protected 6-amino-hexanoic acid (R)-3-({2-[3-(2-{2-[2-(2-amino-ethoxy)-ethoxy]-ethoxy}-ethoxy)-propionylamino]-ethoxy}-hydroxy-phosphoryloxy)-2-hydroxy-propyl ester (Ferguson et al., Org Lett 2006, 8 (10), 2023) was labeled with MR121 fluorophore (CAS 185308-24-1, 1-(3-carboxypropyl)-11-ethyl-1,2,3,4,8,9,10,11-octahydro-dipyrido[3,2-b:2′,3′-i]phenoxazin-13-ium) on the free amine of the ethanolamine side and then, after deprotection, subsequently with tryptophan on the side of the aminohexanoic acid.
Assay working solutions were made as follows:
Assay buffer (50 mM Tris-HCl, 140 mM NaCl, 5 mM KCl, 1 mM CaCl2, 1 mM MgCl2, 0.01% Triton-X-100, pH 8.0;
ATX solution: ATX (human His-tagged) stock solution (1.08 mg/mL in 20 mM bicine, pH 8.5, 0.15 M NaCl, 10% glycerol, 0.3% CHAPS, 0.02% NaN3), diluted to 1.4-2.5× final concentration in assay buffer;
MR121 substrate solution: MR121 substrate stock solution (800 μM MR121 substrate in DMSO), diluted to 2-5× final concentration in assay buffer.
Test compounds (10 mM stock in DMSO, 8 μL) were obtained in 384 well sample plates (Corning Costar #3655) and diluted with 8 μL DMSO. Row-wise serial dilutions were made by transferring 8 μL cpd solution to the next row up to row O. The compound and control solutions were mixed five times and 2 μL were transferred to 384 well assay plates (Corning Costar #3702). Then, 15 μL of 41.7 nM ATX solution was added (30 nM final concentration), mixed five times and then incubated for 15 minutes at 30° C. 10 μL of MR121 substrate solution was added (1 μM final concentration), mixed 30 times and then incubated for 15 minutes at 30′C.

SMILES | IC50
O=C(CCc1ccc(OC(F)(F)F)cc1)N1C[C@@H]2[C@H](C1)[C@H]1CN(C(=O)c3ccc4[nH]nnc4c3)C[C@@H]21 [Example 1.001, 1-[(3aS,3bR,6aS,6bR)-5-(1H-benzotriazole-5-carbonyl)-octahydro-cyclobuta[1,2-c;3,4-c′]dipyrrol-2-yl]-3-(4-trifluoromethoxy-phenyl)-propan-1-one] | 11 nM
O=C(/C=C/c1ccc(OC(F)(F)F)cc1)N1C[C@@H]2[C@H](C1)[C@H]1CN(C(=O)c3ccc4[nH]nnc4c3)C[C@@H]21 [Example 1.003, (E)-1-[(3aS,3bR,6aS,6bR)-5-(1H-benzotriazole-5-carbonyl)-octahydro-cyclobuta[1,2-c;3,4-c′]dipyrrol-2-yl]-3-(4-trifluoromethoxy-phenyl)-propenone] | 8.5 nM
COc1ccc2cc(C(=O)N3C[C@@H]4[C@H](C3)[C@H]3CN(C(=O)c5ccc6[nH]nnc6c5)C[C@@H]43)ccc2c1 [Example 1.005, [(3aS,3bS,6aR,6bR)-5-(1H-benzotriazole-5-carbonyl)-octahydro-cyclobuta[1,2-c;3,4-c′]dipyrrol-2-yl]-(6-methoxy-naphthalen-2-yl)-methanone] | 120 nM
O=C(COc1ccc(OC(F)(F)F)cc1)N1C[C@@H]2[C@H](C1)[C@H]1CN(C(=O)c3ccc4[nH]nnc4c3)C[C@@H]21 [Example 1.008, 1-[(3aR,3bS,6aR,6bS)-5-(1H-benzotriazole-5-carbonyl)-octahydro-cyclobuta[1,2-c;3,4-c′]dipyrrol-2-yl]-2-(4-trifluoromethoxy-phenoxy)-ethanone] | 36 nM
CC(C)c1ccccc1OCC(=O)N1C[C@@H]2[C@H](C1)[C@H]1CN(C(=O)c3ccc4[nH]nnc4c3)C[C@@H]21 [Example 1.009, 1-[(3aR,3bS,6aR,6bS)-5-(1H-benzotriazole-5-carbonyl)-octahydro-cyclobuta[1,2-c;3,4-c′]dipyrrol-2-yl]-2-(2-isopropyl-phenoxy)-ethanone] | 8 nM
O=C(c1ccc2[nH]nnc2c1)N1C[C@@H]2[C@H](C1)[C@H]1CN(C(=O)c3cc4cc(OC(F)(F)F)ccc4[nH]3)C[C@@H]21 [Example 1.010, [(3aR,3bS,6aR,6bS)-5-(1H-benzotriazole-5-carbonyl)-octahydro-cyclobuta[1,2-c;3,4-c′]dipyrrol-2-yl]-(5-trifluoromethoxy-1H-indol-2-yl)-methanone] | 16 nM
O=C(c1ccc2[nH]nnc2c1)N1C[C@@H]2[C@H](C1)[C@H]1CN(C(=O)c3cc4ccc(OC(F)(F)F)cc4[nH]3)C[C@@H]21 [Example 1.011, [(3aR,3bS,6aR,6bS)-5-(1H-benzotriazole-5-carbonyl)-octahydro-cyclobuta[1,2-c;3,4-c′]dipyrrol-2-yl]-(6-trifluoromethoxy-1H-indol-2-yl)-methanone] | 8 nM

Continued, values first:

IC50 | SMILES
34 nM | O=C(c1ccc2cc(Cl)ccc2c1)N1C[C@@H]2[C@H](C1)[C@H]1CN(C(=O)c3ccc4[nH]nnc4c3)C[C@@H]21 [Example 1, [(3aS,3bS,6aR,6bR)-5-(1H-Benzotriazole-5-carbonyl)-octahydro-cyclobuta[1,2-c;3,4-c′]dipyrrol-2-yl]-(6-chloro-naphthalen-2-yl)-methanone]
64 nM | O=C(c1ccc(-c2ccc(F)cc2)cc1)N1C[C@@H]2[C@H](C1)[C@H]1CN(C(=O)c3ccc4[nH]nnc4c3)C[C@@H]21 [Example 1.002, [(3aS,3bS,6aR,6bR)-5-(1H-benzotriazole-5-carbonyl)-octahydro-cyclobuta[1,2-c;3,4-c′]dipyrrol-2-yl]-(4′-fluoro-biphenyl-4-yl)-methanone]
8 nM | O=C(/C=C/c1ccc(OC(F)(F)F)cc1)N1C[C@@H]2[C@H](C1)[C@H]1CN(C(=O)[C@@H]3CCc4[nH]nnc4C3)C[C@@H]21 [Example 1.006, (E)-1-[(3aS,3bS,6aR,6bR)-5-((R)-4,5,6,7-tetrahydro-1H-benzotriazole-5-carbonyl)-octahydro-cyclobuta[1,2-c;3,4-c′]dipyrrol-2-yl]-3-(4-trifluoromethoxy-phenyl)-propenone]
62 nM | N#Cc1ccc2cc(C(=O)N3C[C@@H]4[C@H](C3)[C@H]3CN(C(=O)c5ccc6[nH]nnc6c5)C[C@@H]43)ccc2c1 [Example 1.007, 6-[(3aS,3bS,6aR,6bR)-5-(1H-benzotriazole-5-carbonyl)-octahydro-cyclobuta[1,2-c;3,4-c′]dipyrrole-2-carbonyl]-naphthalene-2-carbonitrile]
86 nM | O=C(c1ccc2ccccc2c1)N1C[C@@H]2[C@H](C1)[C@H]1CN(C(=O)c3ccc4[nH]nnc4c3)C[C@@H]21 [Example 1.012, [(3aS,3bS,6aR,6bR)-5-(1H-benzotriazole-5-carbonyl)-octahydro-cyclobuta[1,2-c;3,4-c′]dipyrrol-2-yl]-naphthalen-2-yl-methanone]
54 nM | Cc1ccc2cc(C(=O)N3C[C@@H]4[C@H](C3)[C@H]3CN(C(=O)c5ccc6[nH]nnc6c5)C[C@@H]43)ccc2c1 [Example 1.013, [(3aS,3bS,6aR,6bR)-5-(1H-benzotriazole-5-carbonyl)-octahydro-cyclobuta[1,2-c;3,4-c′]dipyrrol-2-yl]-(6-methyl-naphthalen-2-yl)-methanone]
45 nM | Cc1ccc2ccc(C(=O)N3C[C@@H]4[C@H](C3)[C@H]3CN(C(=O)c5ccc6[nH]nnc6c5)C[C@@H]43)cc2c1 [Example 1.014, [(3aS,3bS,6aR,6bR)-5-(1H-benzotriazole-5-carbonyl)-octahydro-cyclobuta[1,2-c;3,4-c′]dipyrrol-2-yl]-(7-methyl-naphthalen-2-yl)-methanone]
11 nM | O=C(c1ccc2cc(-c3ccccc3)ccc2c1)N1C[C@@H]2[C@H](C1)[C@H]1CN(C(=O)c3ccc4[nH]nnc4c3)C[C@@H]21 [Example 1.015, [(3aS,3bS,6aR,6bR)-5-(1H-benzotriazole-5-carbonyl)-octahydro-cyclobuta[1,2-c;3,4-c′]dipyrrol-2-yl]-(6-phenyl-naphthalen-2-yl)-methanone]
17 nM | O=C(c1ccc2cc(Br)ccc2c1)N1C[C@@H]2[C@H](C1)[C@H]1CN(C(=O)[C@@H]3CCc4[nH]nnc4C3)C[C@@H]21 [Example 1.016, (6-bromo-naphthalen-2-yl)-[(3aR,3bS,6aR,6bS)-5-((R)-4,5,6,7-tetrahydro-1H-benzotriazole-5-carbonyl)-octahydro-cyclobuta[1,2-c;3,4-c′]dipyrrol-2-yl]-methanone]
8 nM | O=C(c1ccc(-c2ccc(Cl)cc2)cc1)N1C[C@@H]2[C@H](C1)[C@H]1CN(C(=O)c3ccc4[nH]nnc4c3)C[C@@H]21 [Example 1.017, [(3aS,3bS,6aR,6bR)-5-(1H-benzotriazole-5-carbonyl)-octahydro-cyclobuta[1,2-c;3,4-c′]dipyrrol-2-yl]-(4′-chloro-biphenyl-4-yl)-methanone]
16 nM | O=C(c1ccc(-c2ccc(Cl)cc2)cc1)N1C[C@@H]2[C@H](C1)[C@H]1CN(C(=O)[C@@H]3CCc4[nH]nnc4C3)C[C@@H]21 [Example 1.018, (4′-chloro-biphenyl-4-yl)-[(3aR,3bS,6aR,6bS)-5-((R)-4,5,6,7-tetrahydro-1H-benzotriazole-5-carbonyl)-octahydro-cyclobuta[1,2-c;3,4-c′]dipyrrol-2-yl]-methanone]
